Measurements taken from patent US10076578B2, “Probes for imaging of hypoxia” (Vanderbilt University, priority 2014, dated 2018).
Where a name gives a salt, the structure may show the parent alone.

Key:
[1] = system: avascular hypoxic retina of OIR mice; experiment: mouse model of oxygen induced retinopathy (OIR), ex vivo imaging of retinal flatmounts; type: in vivo
Source text: FIG. 4A-4F. […] FIGS. 4(A) and 4(C) HYPOX-1 in P13 OIR mouse retina. FIGS. 4(B) and 4(D) Pimonidazole immunostaining colocalizes with HYPOX-1 region. […] FIG. 5. Retinal flatmounts from OIR mice intravenously injected with HYPOX-1 (green) were stained with endothelial cell marker, ICAM-2 (red). Accumulation of HYPOX-1 is observed in avascular retina. The mouse model of oxygen induced retinopathy (OIR) was selected as a mouse model for hypoxia and generated as published (24). Briefly, litters with 6 to 8 pups were placed into a 75% oxygen chamber with dams from P7-P12. On P12, pups were removed from the hyperoxic environment to room air. Imaging agents, vehicle controls and dye controls were intravitreally injected (3 μg in 1 μL injection volume) or intravenously injected via tail vein (60 mg/kg) 6 h after removal from hyperoxic environment. Pimonidazole hydrochloride (Hypoxyprobe Inc.) was injected intraperitoneally at a concentration of 60 mg/kg body weight. Immunofluorescence analysis of retinal tissues was performed by dissecting retinas from ocular tissues and fixing them in 10% neutral buffered formalin for 2 h. Tissues were then rinsed in Tris buffered saline and blocked/permeabilized in 10% donkey serum with 1% Triton X-100/0.05% Tween 20 in TBS for 6 h. Retinas were then stained for ICAM-2 and Hypoxyprobe followed by secondary antibody staining as indicated. […] Staining of excised retinas with ICAM-2 was used to identify retinal vasculature and its association with HYPOX staining. […] In addition, HYPOX accumulation in retinal tissue can be accomplished through intraocular or intravenous injection routes.

R28 cells [2] = experiment: Hypoxyprobe adduct immunostaining of normoxia- or hypoxia-conditioned cells; type: cell-based, rat; conditions: 100 μM
Experimental: FIG. 1A. R28 cells were treated with 100 μM pimonidazole hydrochloride (Hypoxyprobe) and subjected to normoxia or hypoxia-conditioning for 4 h, followed by Hypoxyprobe adduct immunostaining. […] Primary human Müller cells and R28 cell line were grown in low glucose DMEM supplemented with 10% Fetal Bovine Serum, 1× GlutaMAX, and 1× Penicillin-Streptomycin. All cells were maintained in a humidified environment with 5% CO2 at 37° C. unless otherwise noted. For hypoxia induction, assay plates were placed into a humidified chamber and ambient air was displaced with a mixture of 5% CO2 and 95% N2 at a flow rate of 20 L/min for 5 min according to manufacturer instructions and published methods (28). The chamber was clamped and placed at 37° C. for the remainder of the time point. R28 cells were treated with 100 μM pimonidazole hydrochloride diluted in complete media and subjected to hypoxia or normoxia for 4 h. In order to measure the specificity of HYPOX-1 and HYPOX-2 for hypoxic retinal tissues in vitro, R28 rat retinal neuronal (17, 18) or primary human Müller cells (19) were conditioned in a hypoxic chamber purged with a mixture of nitrogen/carbon dioxide up to 12 h. These two cell lines model predominant oxygen-sensitive cell types in retinal diseases with a hypoxia-ischemia component (20). […]

R28 cells [3] = experiment: BrdU cell proliferation assay (in vitro toxicity); type: cell-based, rat; conditions: up to 100 μM, 24 h
Experimental: FIG. 3A-3B. […] (n=4), p<0.01.
For in vitro toxicity studies, a BrdU cell proliferation assay was performed on R28 cells. The assay was performed according to the manufacturer's protocol with the following specifications. Cells were seeded at 2000 cells/well in a 96-well plate. 24 h after seeding, the cells were serum starved for 6 h. Imaging agents and vehicle controls diluted in complete media were added and allowed to incubate for 24 h. 4 h prior to the end of the incubation, BrdU was added at a concentration of 10 μM.
Both imaging agents were not acutely toxic to retinal cells as assessed by BrdU cell proliferation assays (FIG. 3).

R28 cells [4] = experiment: immunofluorescence imaging of cells incubated with imaging agent; type: cell-based, rat; conditions: 100 μM, 4 h
Experimental: FIG. 2A-2F. R28 retinal neuronal cell lines conditioned under normoxic or hypoxic (4 h) conditions were incubated with 100 μM HYPOX-2 followed by fixation and immunostaining with an antibody specific for pimonidazole adducts in hypoxic cells.
Immunofluorescence analysis of cells was performed by seeding R28 cells at a density of 15,000 cells per well of 8-well chamber slides. When 90% confluent, cells were treated with either imaging agent and pimonidazole hydrochloride or imaging agent only, diluted in complete media, and placed in hypoxia or normoxia for 4 h. Cells were washed 4 times in HBSS, fixed for 10 min with 10% neutral buffered formalin at room temperature, washed 3 times with tris buffered saline and mounted with Prolong Gold with DAPI mounting media.
(§1) Imaging of R28 cells incubated with the hypoxia-sensitive imaging agents further confirmed specificity and mechanism of action.

[5] = system: primary human Müller cells; experiment: in vitro imaging agent uptake assay (microplate fluorescence spectrophotometric assay); type: cell-based; conditions: for increase in hypoxic/normoxic fluorescence intensity ratio: 100 μM; for increase in hypoxic/normoxic fluorescence intensity ratio / dose dependence of fluorescence in hypoxic cells: 12 h hypoxia; for dose dependence of fluorescence in hypoxic cells: Müller cells, n=8
Experimental: (§2) Primary human Müller cells and R28 cell line were grown in low glucose DMEM supplemented with 10% Fetal Bovine Serum, 1× GlutaMAX, and 1× Penicillin-Streptomycin. All cells were maintained in a humidified environment with 5% CO2 at 37° C. unless otherwise noted. For hypoxia induction, assay plates were placed into a humidified chamber and ambient air was displaced with a mixture of 5% CO2 and 95% N2 at a flow rate of 20 L/min for 5 min according to manufacturer instructions and published methods (28). The chamber was clamped and placed at 37° C. for the remainder of the time point. R28 cells were treated with 100 μM pimonidazole hydrochloride diluted in complete media and subjected to hypoxia or normoxia for 4 h.
(§3) To perform in vitro imaging agent uptake assays, R28 cells or primary human Müller cells were seeded at a density of 15,000 cells per well in a 96-well black plate with clear bottom. When 90% confluent, assay plates were either place in hypoxia or kept in normoxia for 12 h. They were treated with imaging agents diluted in complete media and returned to hypoxia or kept in normoxia for 30 min. They were washed 4 times with pre-warmed Hank's Buffered Salt Solution (HBSS), kept in normoxia for 1 h, then washed 4 more times in HBSS. Fluorescence intensity was read ([…]: 490 nm, Emission: 520 nm) using a Synergy Mx Plate Reader from Biotek.
(§4) In order to measure the specificity of HYPOX-1 and HYPOX-2 for hypoxic retinal tissues in vitro, R28 rat retinal neuronal (17, 18) or primary human Müller cells (19) were conditioned in a hypoxic chamber purged with a mixture of nitrogen/carbon dioxide up to 12 h. These two cell lines model predominant oxygen-sensitive cell types in retinal diseases with a hypoxia-ischemia component (20). […] The micromolar doses of HYPOX-1 and HYPOX-2 used in these experiments are modeled on doses used to achieve optimal signal to background ratios using pimonidazole immunohistochemistry (21).

[6] = system: R28 rat retinal neuronal cells; experiment: as above; type: cell-based; conditions: for dose dependence of fluorescence in hypoxic cells: 12 h hypoxia, n=8
Experimental: as §2, §3, §4

[7] = system: Human Retinal Microvascular Endothelial Cells (HRMEC); experiment: Western analysis of cell lysates with anti-Hypoxyprobe antibody; type: cell-based; conditions: 100 μM, 4 h, hypoxic vs normoxic HRMEC
Experimental: FIG. 2G. HYPOX-1 accumulation in hypoxic retinal cells occur through nitroimidazole adduct formation. Human Retinal Microvascular Endothelial Cells (HRMEC) were treated with 100 μM HYPOX-1 under normoxic or hypoxic conditions for 4 h. Cell lysates were probed with an anti-Hypoxyprobe antibody by Western analysis.
as §1

Row | SMILES | Hypoxyprobe immunostaining of central avascular retina ([1]; OIR mice, intraperitoneal 60 mg/kg) | accumulation in retina of room air mice (Hypoxyprobe staining) ([1]; room air mice) | Hypoxyprobe adduct immunostaining, hypoxia-conditioned cells (R28 cells [2]; 4 h hypoxia) | Hypoxyprobe adduct immunostaining, normoxia-conditioned cells (R28 cells [2]; 4 h normoxia) | cell proliferation (BrdU incorporation) (R28 cells [3]) | pimonidazole adducts by adduct-specific antibody (R28 cells [4]; hypoxic R28 cells, but not normoxic cells) | accumulation in cells (fluorescence imaging) (R28 cells [4]; hypoxic vs normoxic R28 cells) | greater fluorescence intensity in hypoxia-conditioned cells ([5]; 10 μM, human Müller cells) | increase in hypoxic/normoxic fluorescence intensity ratio ([5]; human Müller cells) | dose dependence of fluorescence in hypoxic cells [5] | fluorescence intensity of hypoxia-conditioned vs normoxia-conditioned cells ([5]; human Müller cells) | fluorescence intensity of hypoxia-conditioned vs normoxia-conditioned cells [6] | dose dependence of fluorescence in hypoxic cells [6] | accumulation in retina, intraocularly injected ([1]; OIR mice P13, intravitreal 3 μg, retinal flatmounts) | accumulation in retina, intravenously injected ([1]; OIR mice, tail vein 60 mg/kg, ICAM-2 co-staining) | accumulation in retina of age matched control mice ([1]; room air control mice with fully vascularized retinas) | nitroimidazole adduct formation (Western) [7] | detectability of probe ([5]; concentrations lower than 50 μM)
1 | O=[N+]([O-])c1nccn1CC(O)CN1CCCCC1 (stereo not drawn) [pimonidazole hydrochloride, reference compound] | positive immunostaining | no pimonidazole accumulation | positive staining | minimal fluorescence | – | – | – | – | – | – | – | – | – | – | – | – | – | –
2 | O=C1OC2(c3ccc(O)cc3Oc3cc(O)ccc32)c2ccc(NC(=S)NCC3CCN(CC(O)Cn4ccnc4[N+](=O)[O-])CC3)cc21 (stereo not drawn) [HYPOX-2] | – | – | – | – | no significant decrease in cell proliferation | positive for pimonidazole adducts | accumulated in hypoxic cells but not normoxic cells | 32 fold | 11 fold | dose-dependent fluorescence enhancement | significantly higher fluorescence intensity | significantly higher fluorescence intensity | dose-dependent fluorescence enhancement | – | – | – | – | –
3 | O=C1OC2(c3ccc(O)cc3Oc3cc(O)ccc32)c2ccc(NC(=S)NCCCCCn3ccnc3[N+](=O)[O-])cc21 [HYPOX-1] | – | – | – | – | no significant decrease in cell proliferation | – | – | – | 5 fold | dose-dependent fluorescence enhancement | significantly higher fluorescence intensity | significantly higher fluorescence intensity | dose-dependent fluorescence enhancement | accumulation of intraocularly-injected HYPOX-1 in central avascular retinas | accumulated in avascular regions | did not accumulate | Adduct formation was increased in hypoxic cells | not detectable
